Laboratory results taken from EP0839799A1, “2-HYDROXYPHENYLALKYLAMINE DERIVATIVES AND MAILLARD REACTION INHIBITORS” (KISSEI PHARMACEUTICAL CO., LTD., priority 1995, dated 1996).

Columns and labels:
lysozyme = experiment: Maillard reaction inhibiting activity test (lysozyme and fructose, dimer formation by SDS-PAGE/densitometry); format: biochemical; settings: lysozyme 10 mg/ml, fructose 200mM, 0.5M sodium phosphate buffer pH7.4, 37°C, 1 week, inhibition of lysozyme dimer formation; for Inhibiting Activity (%) Concentration (0.2mM): test compound 0.2mM; for Inhibiting Activity (%) Concentration (2mM): test compound 2mM
Description: The test compound (0.2mM or 2mM), lysozyme (lOmg/ml) and fructose (200mM) were dissolved in 0.5M sodium phosphate buffer (pH7.4), and the solution was incubated at 37°C for l week. After incubation, the sample was separated by SDS-PAGE and stained with Coomassie Brilliant Blue R-250. The percentage of formed dimer to total proteins was measured by densitometry. Inhibiting activities of the test compounds were evaluated from comparing the percentage of formed dimer in the presence of the test compound with that in the absence of the test compound.

[1] = test system: AGE content in plasma proteins; experiment: Inhibition assay for AGE formation in vivo (AGE content in plasma proteins by ELISA using anti-AGE antibody); design: species or system male SD rats; settings: STZ-induced diabetic rats, 4 weeks, relative to untreated rats (as 100% control)
Description: Diabetes was induced in male SD rats, 6 weeks of age, by intravenous single injection of streptozotocin (STZ) (50mg/kg) into tail. One week after diabetes induction, α -amino-2-hydroxyphenylacetic acid.hydrochloride or aminoguanidine was given to the diabetic rats by daily oral administration at dosage of 50mg/kg or lOOmg/kg. After 4 weeks of administration, blood samples were collected and AGE content in plasma proteins was measured by ELISA using anti-AGE antibody. AGE content in drug-treated rats were estimated compared with the average content of untreated rats (as 100% control).

Male SD rats [2] = experiment: Toxicity test by long-term administration; format: in vivo
Description: Male SD rats, 6 weeks of age, received STZ (50mg/kg) by single intravenous injection into the tail and were made diabetic. One week after STZ injection, α -amino-2-hydroxyphenylacetic acid-hydrochloride suspended in 0.5% of CMC was given to the diabetic rats by daily oral administration at a dosage of lOOmg/kg. Rats in the control group received O.5% of CMC alone. Compared with the control group, significant reduction in weight and significant increase in number of dead animals were not observed until ten weeks after administration.

Male SD rats [3] = experiment: Acute toxicity test; format: in vivo; settings: for hematological examinations / death: 2000 mg/kg; for death: single administration 2000 mg/kg, until 7 days after administration
Description: Male SD rats, 6 weeks of age and weighing between 140g and 165 g, were conditioned to an overnight fast. α -Amino-2 hydroxyphenylacetic acid.hydrochloride suspended in 0.5% of CMC were given to the rats at a dosage of 2000 mg/kg. Control group rats received 0.5% of CMC alone.
Six hours after administration, all rats were allowed free access to food and water. Seven days after administration, blood samples were collected and tested with hematological examinations. Plasma samples were tested with blood biochemical examinations.

[4] = STZ diabetic rats, 100mg/kg daily oral, until ten weeks, versus control group

| Structure (SMILES) | Inhibiting Activity (%) Concentration (0.2mM) (lysozyme) [%] | Inhibiting Activity (%) Concentration (2mM) (lysozyme) [%] | other results |
| --- | --- | --- | --- |
| NC(C(=O)O)c1ccccc1O (single isomer, unassigned) [Example 12, α -Amino-2-hydroxyphenylacetic acid (optical isomer)] | 22.4 | 83.5 | – |
| NC(C(=O)O)c1ccccc1O (single isomer, unassigned) [Example 13, α -Amino-2-hydroxyphenylacetic acid (optical isomer)] | 24.0 | 86.3 | – |
| Cl.NC(C(=O)O)c1ccccc1O (stereo not drawn) [Example 1, α -Amino-2-hydroxyphenylacetic acid.hydrochloride] | 21.2 | 86.1 | AGE content ([1]; 50 mg/kg daily oral): 81.6%; AGE content ([1]; 100mg/kg daily oral): 62.4%; increase in number of dead animals (Male SD rats [2]; [4]): not observed; reduction in weight (Male SD rats [2]; [4]): not observed; toxicity and side effects (Male SD rats [2]; rats, 100mg/kg/day for ten consecutive weeks): significant toxicity and side effects were not observed; blood biochemical examinations (Male SD rats [3]; 2000 mg/kg single dose, seven days after administration, versus control group): no significant difference was observed; hematological examinations (Male SD rats [3]; 2000 mg/kg single dose, seven days after administration, versus control group, listed as α -Amino-2 hydroxyphenylacetic acid.hydrochloride): no significant difference was observed; hematological examinations (Male SD rats [3]; 2000 mg/kg single dose, seven days after administration, versus control group, listed as α -amino-2-hydroxyphenylacetic acid hydrochloride): a significant effect was not observed; behavior disorder (Male SD rats [3]; 2000 mg/kg single dose, until 6 hours after administration): behavior disorder was not observed; death (Male SD rats [3]; listed as α -Amino-2 hydroxyphenylacetic acid.hydrochloride): all animals did not die; death (Male SD rats [3]; listed as α -amino-2-hydroxyphenylacetic acid hydrochloride): no death was observed |
| COC(=O)C(N)c1ccccc1O.Cl (stereo not drawn) [Example 2, Methyl α -amino-2-hydroxyphenylacetate-hydrochloride] | 30.6 | 67.5 | – |
| Cl.NC(C(=O)O)c1cc(Cl)ccc1O (stereo not drawn) [Example 3, α -Amino-5-chloro-2-hydroxyphenylacetic acid-hydrochloride] | 38.8 | 88.4 | – |
| COc1ccc(O)c(C(N)C(=O)O)c1.Cl (stereo not drawn) [Example 4, α -Amino-2-hydroxy-5-methoxyphenylacetic acid-hydrochloride] | 30.9 | 87.4 | – |
| COC(=O)C(N)c1cc(O)ccc1O (stereo not drawn) [Example 5, Methyl α -amino-2,5-dihydroxyphenylacetate] | – | 48.3 | – |
| CN(C)C(=O)C(N)c1ccccc1O (stereo not drawn) [Example 6, N,N-Dimethyl-α -amino-2-hydroxyphenylacetamide] | 13.0 | 82.1 | – |
| NC(=O)C(N)c1ccccc1O (stereo not drawn) [Example 7, α -Amino-2-hydroxyphenylacetamide] | 38.7 | 89.3 | – |
| Cl.NC(C(=O)NCc1ccccc1)c1ccccc1O (stereo not drawn) [Example 8, N-Benzyl-α-amino-2-hydroxyphenylacetamide-hydrochloride] | 13.9 | 55.3 | – |
| Cl.NC(C(=O)NCCc1ccccc1)c1ccccc1O (stereo not drawn) [Example 9, N-(2-Phenethyl)-α-amino-2-hydroxyphenylacetamidehydrochloride] | – | 80.0 | – |
| NC(CC(=O)O)c1ccccc1O (centres unmarked) [Example 10, 3-Amino-3-(2-hydroxyphenyl)propionic acid] | 15.0 | – | – |
| Cl.NC(=O)C(N)c1ccccc1O (stereo not drawn) [Example 14, α -Amino-2-hydroxyphenylacetamide-hydrochloride] | 21.4 | 87.6 | – |
| CC(C)OC(=O)CCC(N)c1ccccc1O.Cl (centres unmarked) [Example 15, Isopropyl 4-amino-4-(2-hydroxyphenyl)butyrate.hydrochloride] | 2.7 | – | – |
| N=C(N)NN [aminoguanidine, reference compound] | 2.9 | 17.2 | AGE content ([1]; aminoguanidine daily oral, dose not stated in the table (50mg/kg or 100mg/kg per method)): 88.8% |
